The record followed here is patent US6632813B1, “6-subtituted-7-heteroquinoxalinecarboxylic acid derivatives and addition salts thereof and processes for the preparation of both” (Kyorin Pharmaceutical Co., Ltd., priority 1999, dated 2003).

Series [1] addresses AMPA receptor. The experiment in a line: Binding experiment against AMPA receptor ([3H]-AMPA binding, crude synaptic membranes from cerebral cortex). As to conditions: [3H]-AMPA 5 nmol/L, potassium thiocyanate 100 mmol/L, 30 minutes at 0° C., rat cerebral cortex crude synaptic membranes; IC50 converted to Ki; read-out: [3H]-AMPA (Ki: μmol/L). Here is the method: Binding Experiment Against AMPA Receptor
To a crude synaptic membranes preparation prepared from cerebral cortex in rat were added [^3H]-AMPA (final concentration: 5 nmol/L) that binds selectively to AMPA receptors, potassium thiocyanate (final concentration: 100 mmol/L) and testing compound, and the mixture was incubated for 30 minutes at 0° C. After the reaction was stopped by suction filtration, the radioactivity on filter was measured with liquid scintillation counter. The specific binding level of [^3H]-AMPA was determined by subtracting the non-specific binding level in the presence of glutamic acid (0.1 mmol/L) from total binding level. The [^3H]-AMPA binding in the absence of testing compound was put on 100, and the concentration of compound to decrease by 50% (IC50 value) was determined, which was converted to Ki value to calculate the binding capacity of each compound to AMPA receptor (Eur. J. Pharmacol., 1993, 246, 195-204).

pKi: −log10 of the molar value. Some results are limits rather than exact numbers.

Usually melting point stands for the temperature, or range, at which the solid turns liquid.

Take `O=C(NCc1ccn(-c2cc3nc(C(=O)O)c(=O)[nH]c3cc2Cl)c1)Nc1ccc(C(=O)O)cc1` [Example 10, 7-(3-(((4-Carboxyphenyl)aminocarbonylamino)methyl)pyrrole-1-yl)-6-chloro-3,4-dihydro-3-oxoquinoxaline-2-carboxylic Acid]: the melting point was > 300 °C. Moreover, in series [1], the pKi was 7.17.

In the case of `COc1cc2[nH]c(=O)c(C(=O)O)nc2cc1-n1ccc(CNC(=O)Nc2ccc(C(=O)O)cc2)c1` [Example 11, 7-(3-(((4-Carboxyphenyl)aminocarbonylamino)methyl)pyrrole-1-yl)-3,4-dihydro-6-methoxy-3-oxoquinoxaline-2-carboxylic Acid], the melting point is > 300 °C. Moreover, the pKi in series [1] was 6.49.

Regarding `Cc1cc2[nH]c(=O)c(C(=O)O)nc2cc1-n1ccc(CNC(=O)Nc2ccc(C(=O)O)cc2)c1` [Example 12, 7-(3-(((4-Carboxyphenyl)aminocarbonylamino)methyl)pyrrole-1-yl)-3,4-dihydro-6-methyl-3-oxoquinoxaline-2-carboxylic Acid], the melting point was > 300 °C. The pKi in series [1] is 6.75.

On to `O=C(NCc1ccn(-c2cc3nc(C(=O)O)c(=O)[nH]c3cc2F)c1)Nc1ccc(C(=O)O)cc1` [Example 13], for which the melting point is > 300 °C. Besides, in series [1], the pKi was 6.03.

For `O=C(NCc1ccn(-c2cc3nc(C(=O)O)c(=O)[nH]c3cc2Cl)c1)Nc1ccccc1` [Example 26], the melting point was 171 to 173 °C (dec.).

`CC(C)NC(=O)NCc1ccn(-c2cc3nc(C(=O)O)c(=O)[nH]c3cc2Cl)c1` [Example 37]: the melting point is 158 to 160 °C (dec.).

Consider `COc1ccc(NC(=O)NCc2ccn(-c3cc4nc(C(=O)O)c(=O)[nH]c4cc3Cl)c2)cc1` [Example 38, 6-Chloro-3,4-dihydro-7-(3-(((4-methoxyphenyl)aminocarbonylamino)methyl)pyrrole-1-yl)-3-oxoquinoxaline-2-carboxylic Acid], for which the melting point is 208 to 210 °C (dec.).

In the case of `O=C(NCc1ccn(-c2cc3nc(C(=O)O)c(=O)[nH]c3cc2Cl)c1)Nc1ccc(Cl)cc1` [Example 39, 6-Chloro-7-(3-(((4-chlorophenyl)aminocarbonylamino)methyl)pyrrole-1-yl)-3,4-dihydro-3-oxoquinoxaline-2-carboxylic Acid], the melting point was 193 to 195 °C (dec.).

As to `O=C(NCc1ccn(-c2cc3nc(C(=O)O)c(=O)[nH]c3cc2Cl)c1)Nc1cccc2ccccc12` [Example 40, 6-Chloro-3,4-dihydro-7-(3-(((1-naphthyl)aminocarbonylamino)methyl)pyrrole-1-yl)-3-oxoquinoxaline-2-carboxylic Acid], the melting point was 196 to 198 °C.

For the compound `O=C(Nc1ccccc1)OCc1cn(-c2cc3nc(C(=O)O)c(=O)[nH]c3cc2Cl)cn1` [Example 47, 6-Chloro-3,4-dihydro-3-oxo-7-(4-((phenylcarbamoyloxy)methyl)imidazole-1-yl)quinoxaline-2-carboxylic Acid], the melting point was 199 to 201 °C (dec.).

`O=C(Nc1ccc(C(=O)O)cc1)OCc1cn(-c2cc3nc(C(=O)O)c(=O)[nH]c3cc2Cl)cn1` [Example 53, 7-(4-(((4-Carboxyphenyl)carbamoyloxy)methyl)imidazole-1-yl)-6-chloro-3,4-dihydro-3-oxoquinoxaline-2-carboxylic Acid]: the melting point is 246 to 248 °C (dec.).
